Here are results for one molecule from patent US20250134855A1, “CO[…] AND METHODS OF USING SAME” (LYKOS THERAPEUTICS, INC., priority 2022, published 2025).

The subject of series [1] is bacterial reverse mutation assay (Ames test). The series is described as follows: In vitro bacterial reverse mutation assay (Ames test). In kind it is cell-based. As to conditions: with or without metabolic activation. From the text:
MDMA was not mutagenic with or without metabolic activation in the in vitro bacterial reverse mutation assay (Ames test).

Series [2] is described as follows: Study MPKF: safety and tolerability (AEs, laboratory, vital signs). It counts as in vivo, human. The following applies: human, plasma, oral, 120 mg, 1 participant, no AEs reported. The text has this: (§1) The MPKF was a Phase 1, open-label, randomized sequence, multi-dose, 2-period crossover food effect study in 16 healthy individuals. The MPKF study evaluated plasma concentrations of both MDMA and the active metabolite 3,4-methylenedioxyamphetamine (MDA). Summary PK Parameters of the preliminary data was based on interim analysis are presented in Table 12 Table 12 Table 12, and Table 13 Table 13 Table 13 for MDMA and MDA, respectively.
(§2) Participants remained at the clinical research unit (CRU) for each Dosing Session from the time of check-in on the night before dosing until discharge 48 hours after dosing for collection of serial blood samples for PK analysis and safety monitoring. IMP was administered on Day 1 following the treatment sequence to which the participant was randomized. An additional outpatient visit occurred 72 hours after dosing to collect a final PK sample, commensurate with the expected PK profiles of MDMA and MDA. Safety assessments were also performed at this visit.
(§3) The washout period between Dosing Sessions was at least 14 days. If a participant experienced emesis within 4 hours of administration, they were to be withdrawn from the study and replaced with a new participant. An End of Study Visit was performed 2 to 10 days after the completion of the final Dosing Session 72-hour follow-up. An informal interim analysis was planned to be conducted after at least 5 participants completed at least 1 Dosing Session to examine PK variability.

Another series concerns healthy individuals. The description is as above. In kind it is in vivo, human.
Source text: as §1, §2, §3

For series [3] the following is noted: single 100 mg dose of MDMA (Segura 2005); cited from earlier work.
In another series the target is OCT2 (Homo sapiens, UniProt O15244). The series is described as follows: Transporter inhibition, OCT2. As to conditions: at supratherapeutic concentrations.
Chain of OCT2 (O15244 whole entry): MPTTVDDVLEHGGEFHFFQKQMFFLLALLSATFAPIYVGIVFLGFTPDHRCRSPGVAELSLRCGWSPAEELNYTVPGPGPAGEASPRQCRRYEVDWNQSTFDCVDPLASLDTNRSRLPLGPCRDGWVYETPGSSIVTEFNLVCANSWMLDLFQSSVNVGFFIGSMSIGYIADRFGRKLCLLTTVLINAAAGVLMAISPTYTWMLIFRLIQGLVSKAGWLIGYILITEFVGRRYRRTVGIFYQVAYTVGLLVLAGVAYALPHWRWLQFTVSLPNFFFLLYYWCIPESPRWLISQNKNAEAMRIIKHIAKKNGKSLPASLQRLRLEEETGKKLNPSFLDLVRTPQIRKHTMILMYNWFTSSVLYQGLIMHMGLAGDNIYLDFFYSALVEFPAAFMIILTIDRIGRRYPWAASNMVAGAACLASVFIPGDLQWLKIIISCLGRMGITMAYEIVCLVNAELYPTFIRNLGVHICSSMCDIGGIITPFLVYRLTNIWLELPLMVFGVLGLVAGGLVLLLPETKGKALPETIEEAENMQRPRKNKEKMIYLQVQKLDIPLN
Another series deals with BCRP (Homo sapiens, UniProt Q9UNQ0). The series is described as follows: Transporter inhibition, BCRP. As to conditions: not told.
Chain of BCRP (Q9UNQ0 whole entry): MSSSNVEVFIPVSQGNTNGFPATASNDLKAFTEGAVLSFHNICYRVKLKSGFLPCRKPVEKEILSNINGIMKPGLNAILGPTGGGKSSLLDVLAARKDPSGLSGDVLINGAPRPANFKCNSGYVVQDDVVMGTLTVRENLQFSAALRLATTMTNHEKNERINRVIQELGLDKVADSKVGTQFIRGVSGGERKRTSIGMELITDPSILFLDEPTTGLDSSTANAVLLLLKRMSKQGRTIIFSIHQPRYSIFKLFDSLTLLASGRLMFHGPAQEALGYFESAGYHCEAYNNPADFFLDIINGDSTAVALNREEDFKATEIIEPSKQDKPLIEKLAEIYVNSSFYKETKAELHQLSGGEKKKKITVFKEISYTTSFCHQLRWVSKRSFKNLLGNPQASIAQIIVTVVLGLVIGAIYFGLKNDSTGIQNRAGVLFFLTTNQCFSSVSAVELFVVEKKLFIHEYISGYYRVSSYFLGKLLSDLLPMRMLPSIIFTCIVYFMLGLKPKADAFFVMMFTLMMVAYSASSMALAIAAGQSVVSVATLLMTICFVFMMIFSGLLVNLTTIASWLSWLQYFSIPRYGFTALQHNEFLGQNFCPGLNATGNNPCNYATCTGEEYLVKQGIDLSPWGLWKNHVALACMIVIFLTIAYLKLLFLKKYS
In series [4] the target is organic anion transporter (OAT1) (Homo sapiens, UniProt Q4U2R8). The series is described as follows: Transporter inhibition, OAT1.
Chain of organic anion transporter (OAT1) (Q4U2R8 whole entry): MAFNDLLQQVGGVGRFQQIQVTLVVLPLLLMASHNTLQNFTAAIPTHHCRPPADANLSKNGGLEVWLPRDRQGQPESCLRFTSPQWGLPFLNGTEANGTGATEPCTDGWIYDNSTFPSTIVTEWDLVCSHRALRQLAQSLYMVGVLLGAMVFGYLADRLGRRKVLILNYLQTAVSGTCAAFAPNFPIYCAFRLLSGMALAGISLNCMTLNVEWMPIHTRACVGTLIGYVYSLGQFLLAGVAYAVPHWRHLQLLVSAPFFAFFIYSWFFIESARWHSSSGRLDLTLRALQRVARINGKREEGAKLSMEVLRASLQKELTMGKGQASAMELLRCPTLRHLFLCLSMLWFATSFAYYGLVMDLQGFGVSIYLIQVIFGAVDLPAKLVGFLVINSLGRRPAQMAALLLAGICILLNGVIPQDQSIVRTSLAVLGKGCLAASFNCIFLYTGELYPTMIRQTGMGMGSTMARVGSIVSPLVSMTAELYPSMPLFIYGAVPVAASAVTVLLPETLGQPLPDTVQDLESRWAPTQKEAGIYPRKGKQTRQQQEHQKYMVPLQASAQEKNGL
The next series has as its target MATE1 (Homo sapiens, UniProt Q96FL8). The series is described as follows: Transporter inhibition, MATE1. The following applies: at supratherapeutic concentrations.
A further series concerns the target MDR1 (Homo sapiens, UniProt P08183). The series is described as follows: Transporter substrate assessment, MDR1.
The target in another series is OATP1B1 (Homo sapiens, UniProt Q9Y6L6). The series is described as follows: Transporter substrate assessment, OATP1B1.
Chain of OATP1B1 (Q9Y6L6 whole entry): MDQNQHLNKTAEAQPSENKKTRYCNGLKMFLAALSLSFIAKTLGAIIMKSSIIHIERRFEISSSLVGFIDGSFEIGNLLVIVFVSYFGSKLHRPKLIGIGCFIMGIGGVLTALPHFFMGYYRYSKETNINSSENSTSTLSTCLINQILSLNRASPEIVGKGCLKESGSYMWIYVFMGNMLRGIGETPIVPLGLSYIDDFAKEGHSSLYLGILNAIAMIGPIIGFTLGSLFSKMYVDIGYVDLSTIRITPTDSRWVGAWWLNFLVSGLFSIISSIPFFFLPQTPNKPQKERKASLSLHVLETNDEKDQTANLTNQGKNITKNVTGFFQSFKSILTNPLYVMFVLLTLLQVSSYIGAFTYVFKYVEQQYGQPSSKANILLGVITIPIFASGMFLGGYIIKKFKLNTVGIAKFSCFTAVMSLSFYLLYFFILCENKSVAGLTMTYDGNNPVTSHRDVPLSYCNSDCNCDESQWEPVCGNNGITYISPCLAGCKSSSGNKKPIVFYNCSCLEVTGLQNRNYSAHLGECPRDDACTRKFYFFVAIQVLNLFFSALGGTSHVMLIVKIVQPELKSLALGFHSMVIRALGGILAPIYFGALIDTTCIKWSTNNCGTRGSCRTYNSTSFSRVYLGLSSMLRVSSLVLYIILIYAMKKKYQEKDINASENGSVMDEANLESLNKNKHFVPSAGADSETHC
A further series relates to dogs. The series is described as follows: 28-day repeat-dose toxicity, weekly oral, dogs. As to conditions: any dose.

Chain of MDR1 (P08183 whole entry): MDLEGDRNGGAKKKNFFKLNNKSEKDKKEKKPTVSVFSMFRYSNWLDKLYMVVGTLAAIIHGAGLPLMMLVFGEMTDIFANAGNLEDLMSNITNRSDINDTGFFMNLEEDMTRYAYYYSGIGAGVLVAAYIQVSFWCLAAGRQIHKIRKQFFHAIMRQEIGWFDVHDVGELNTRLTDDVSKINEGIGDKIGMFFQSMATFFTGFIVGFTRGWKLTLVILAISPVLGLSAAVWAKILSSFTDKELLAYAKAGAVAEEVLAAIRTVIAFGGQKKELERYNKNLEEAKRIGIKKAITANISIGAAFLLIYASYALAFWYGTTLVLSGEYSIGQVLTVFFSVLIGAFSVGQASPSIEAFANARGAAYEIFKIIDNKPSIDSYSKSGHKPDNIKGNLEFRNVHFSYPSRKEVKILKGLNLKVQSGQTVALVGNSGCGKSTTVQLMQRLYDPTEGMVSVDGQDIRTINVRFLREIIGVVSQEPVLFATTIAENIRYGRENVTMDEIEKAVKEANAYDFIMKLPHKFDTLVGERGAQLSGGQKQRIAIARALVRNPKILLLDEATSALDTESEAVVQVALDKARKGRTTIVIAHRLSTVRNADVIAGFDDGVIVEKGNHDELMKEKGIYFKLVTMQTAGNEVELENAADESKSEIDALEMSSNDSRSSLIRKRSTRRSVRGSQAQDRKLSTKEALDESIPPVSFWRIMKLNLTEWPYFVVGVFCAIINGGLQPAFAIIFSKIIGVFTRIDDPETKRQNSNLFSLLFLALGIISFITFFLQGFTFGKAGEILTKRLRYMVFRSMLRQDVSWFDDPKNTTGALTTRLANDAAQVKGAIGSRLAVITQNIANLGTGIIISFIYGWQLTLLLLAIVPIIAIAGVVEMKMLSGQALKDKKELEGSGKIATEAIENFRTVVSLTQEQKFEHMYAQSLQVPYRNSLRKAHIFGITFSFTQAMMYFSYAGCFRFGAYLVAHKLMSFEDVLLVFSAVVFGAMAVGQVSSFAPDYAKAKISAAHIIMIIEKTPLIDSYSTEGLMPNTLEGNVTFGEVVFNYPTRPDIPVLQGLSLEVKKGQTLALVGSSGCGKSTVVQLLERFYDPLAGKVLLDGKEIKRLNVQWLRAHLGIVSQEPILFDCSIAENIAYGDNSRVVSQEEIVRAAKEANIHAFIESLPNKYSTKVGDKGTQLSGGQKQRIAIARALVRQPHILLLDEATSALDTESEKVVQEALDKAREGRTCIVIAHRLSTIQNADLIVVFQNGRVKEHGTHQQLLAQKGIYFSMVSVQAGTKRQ
Chain of MATE1 (Q96FL8 whole entry): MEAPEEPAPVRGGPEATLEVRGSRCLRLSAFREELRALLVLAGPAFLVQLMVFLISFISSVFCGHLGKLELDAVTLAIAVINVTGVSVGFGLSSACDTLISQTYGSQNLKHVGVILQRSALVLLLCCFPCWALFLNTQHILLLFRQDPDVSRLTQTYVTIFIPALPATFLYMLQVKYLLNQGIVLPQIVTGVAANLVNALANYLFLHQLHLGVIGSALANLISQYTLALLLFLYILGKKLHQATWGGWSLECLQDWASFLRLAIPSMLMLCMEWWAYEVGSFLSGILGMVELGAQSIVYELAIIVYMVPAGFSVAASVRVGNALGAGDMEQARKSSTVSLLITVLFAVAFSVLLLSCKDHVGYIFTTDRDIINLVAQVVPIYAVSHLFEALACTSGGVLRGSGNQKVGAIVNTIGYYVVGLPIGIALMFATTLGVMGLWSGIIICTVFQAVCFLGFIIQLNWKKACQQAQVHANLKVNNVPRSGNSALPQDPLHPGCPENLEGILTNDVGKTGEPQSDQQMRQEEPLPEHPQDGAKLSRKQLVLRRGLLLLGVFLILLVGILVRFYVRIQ

With `CNC(C)Cc1ccc2c(c1)OCO2` (stereo not drawn) [MDMA, 3,4-methylenedioxymethamphetamine], the “mutagenicity, Ames test” value in series [1] was “not mutagenic”. In series [2] (read-out: AUC0-inf at which tolerability is supported), the AUC(0-inf) stood at 8920 ng·h/mL. Besides, the Cmax in [2] (read-out: Cmax at which tolerability is supported) was found to be 440 ng/mL. For the same molecule, the “participants with SBP≥160 mmHg or DBP≥100 mmHg or temperature>38.3° C.” value with healthy individuals (any timepoint) is “No participant”. Moreover, the “time of largest mean changes in SBP, DBP, temperature” value with healthy individuals (fasted condition) came out at 2 h. The “time of largest mean changes in SBP, DBP, temperature” value with healthy individuals (fed group) was determined as 4 h. Further, in the series with healthy individuals (non-clinically significant), the “difference in largest mean change of SBP, fasted vs fed” value is “about +5 mmHg” and the “difference in largest mean change of temperature, fasted vs fed” value is “~+0.05 °C”. In addition, in the series with healthy individuals (screening to end of study), the “impact on biologic laboratory parameters” value was “no significant impact”. Besides, in [3], the “increase of AUC0-8 hr of paroxetine (20 mg)” value is recorded as 3 fold and the “increase of Cmax of paroxetine (20 mg)” value is recorded as 2.5 fold. The “inhibition of OCT2” value at OCT2 is “inhibits”. Also, the “inhibition of BCRP” value against BCRP is reported as “not an inhibitor”. The “inhibition of OAT1” value in [4] is reported as “not an inhibitor”. Also, the “inhibition of MATE1” value against MATE1 was “inhibits”. The “substrate of MDR1” value on MDR1 is “not a substrate”. Besides, the “substrate of OATP1B1” value on OATP1B1 is “not a substrate”. The “neurohistopathology of the brain” value in the series with dogs was “No morphologic changes”.
